Counter-ions that a name gives are not always drawn. Like-named read-outs stand apart in the source and are kept apart here. A value given as a limit tells only on which side of the number the result lay.

Test [1] addresses T1, catalytic domain of human Bub1 (amino acids 704-1085) (Homo sapiens, UniProt O43683).
T1 construct: catalytic domain of human Bub1 (amino acids 704-1085); His6 (N); made in house; host or cells: Hi5 insect cells
In words: Bub1 kinase assay (TR-FRET). The format is biochemical. In short, it runs like this:
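TR-FRET read-out (Eu-anti-mouse IgG/anti-phosphoserine antibody to streptavidin-XL665 on biotinylated peptide) after EDTA stop and 1 h complex formation at 22° C. Kinase reaction ran 60 min at 22° C with 1:3.4 serial dilutions from 2 mM DMSO stocks. IC50 from 4-parameter logistic fit of normalized inhibition.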
A general note: In TR-FRET formats the signal depends on donor and acceptor labels being close together.

Test [2] relates to HeLa human cervical tumor cells. In words: Proliferation assay (HeLa+Paclitaxel).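 Note: compounds at 0.001-10 µM added 4 h after paclitaxel, 92 h exposure, absorbance normalized to zero-point plate (0%) and untreated cells (100%), IC50 from 4-parameter fit.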 The following applies: read-out: Biological Assay 3: HeLa + Paclitaxel IC50, 3 nM paclitaxel, crystal violet.
For the next test, the target named is Bub1 (Homo sapiens, UniProt O43683). In words: Formation-Assay: phosphorylation status of histone 2A by inhibition of kinase activity of Bub1. The test is classed as cell-based. The settings on record: Biological Assay 4.1: H2A Formation IC50, co-treatment with Nocodazole 1 μg/ml, 16 h. An outline of the steps: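 Cells co-treated 16 h with Nocodazole (1 μg/ml) and compound (3 nM–10 μM), then fixed and immunostained for phospho-H2A, read by infrared imaging (800 nm) normalised to cell stain (700 nm). Nocodazole-only set as 100%, untreated cells as 0%.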
Chain of Bub1 (O43683 whole entry): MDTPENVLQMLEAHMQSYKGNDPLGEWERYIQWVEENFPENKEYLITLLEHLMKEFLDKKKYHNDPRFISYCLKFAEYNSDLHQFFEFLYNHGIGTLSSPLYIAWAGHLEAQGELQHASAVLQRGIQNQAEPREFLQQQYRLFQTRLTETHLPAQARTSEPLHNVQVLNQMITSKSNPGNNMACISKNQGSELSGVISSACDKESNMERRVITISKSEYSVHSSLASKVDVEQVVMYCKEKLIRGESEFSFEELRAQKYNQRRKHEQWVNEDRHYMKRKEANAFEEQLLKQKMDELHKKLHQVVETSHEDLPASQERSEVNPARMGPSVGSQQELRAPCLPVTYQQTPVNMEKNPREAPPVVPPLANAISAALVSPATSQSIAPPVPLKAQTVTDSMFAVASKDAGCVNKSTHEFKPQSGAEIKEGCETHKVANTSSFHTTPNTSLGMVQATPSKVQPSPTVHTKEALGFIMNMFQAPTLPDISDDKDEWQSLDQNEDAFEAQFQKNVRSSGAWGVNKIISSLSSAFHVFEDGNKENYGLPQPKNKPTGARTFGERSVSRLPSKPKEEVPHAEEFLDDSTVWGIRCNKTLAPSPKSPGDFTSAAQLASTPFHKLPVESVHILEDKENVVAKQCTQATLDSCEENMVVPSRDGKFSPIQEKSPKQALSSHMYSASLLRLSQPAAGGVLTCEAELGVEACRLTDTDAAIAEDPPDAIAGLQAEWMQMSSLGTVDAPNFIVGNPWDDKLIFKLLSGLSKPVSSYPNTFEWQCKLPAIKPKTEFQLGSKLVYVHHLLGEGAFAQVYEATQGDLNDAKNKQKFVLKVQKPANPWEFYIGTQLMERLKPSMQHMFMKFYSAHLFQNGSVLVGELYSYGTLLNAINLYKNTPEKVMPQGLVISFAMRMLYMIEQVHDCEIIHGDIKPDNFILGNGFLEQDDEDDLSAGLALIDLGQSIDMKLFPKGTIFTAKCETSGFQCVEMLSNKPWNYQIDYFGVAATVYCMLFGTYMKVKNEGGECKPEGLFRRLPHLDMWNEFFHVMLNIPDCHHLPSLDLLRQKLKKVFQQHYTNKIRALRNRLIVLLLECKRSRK

In another test the test system is HeLa. In words: Proliferation assay (HeLa cell line).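 Note: crystal violet staining of cell number, scaled between a plate stained before dosing (0%) and cells left untreated (100%), compounds tested at 0.001-10 µM, IC50 via 4-parameter fit.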 The settings on record: Homo sapiens, 96 h, read-out: Biological Assay 2: Proliferation assay (HeLa cell line) median IC50.
Where [3] appears, read: Biological Assay 1: Bub1 kinase assay median IC50, 10 μM ATP.
[4] abbreviates: 10 μM ATP, read-out: Biological Assay 1: Bub1 kinase assay median IC50.

T1 sequence (O43683 704-1085): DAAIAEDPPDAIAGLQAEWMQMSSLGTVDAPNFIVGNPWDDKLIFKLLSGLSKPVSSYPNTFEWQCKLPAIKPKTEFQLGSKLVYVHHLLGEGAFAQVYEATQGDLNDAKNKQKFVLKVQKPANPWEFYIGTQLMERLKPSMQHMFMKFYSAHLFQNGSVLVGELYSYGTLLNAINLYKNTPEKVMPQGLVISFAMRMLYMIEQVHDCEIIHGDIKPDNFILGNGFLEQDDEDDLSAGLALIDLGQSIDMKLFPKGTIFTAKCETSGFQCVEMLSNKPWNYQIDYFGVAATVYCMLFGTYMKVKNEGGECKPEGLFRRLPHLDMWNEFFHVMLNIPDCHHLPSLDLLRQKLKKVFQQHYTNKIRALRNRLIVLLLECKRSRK

With `CCOc1cc(F)c(Cn2nc(-c3ncc(CC[S@](C)(=N)=O)c(Nc4ccncc4)n3)c3ccccc32)c(F)c1` [Example 2-7-1, 2-[1-(4-ethoxy-2,6-difluorobenzyl)-1H-indazol-3-yl]-5-[2-(S-methylsulfonimidoyl)ethyl]-N-(pyridin-4-yl)pyrimidin-4-amine], the IC50 in test [1] (setting [3]) stood at 6.3 nM; in test [2], 450 nM; at Bub1 it was 570 nM; with HeLa, 3500 nM.

For `CCOc1cc(F)c(Cn2nc(-c3nc4c(c(Nc5ccncc5C)n3)CCC4)c3ccccc32)c(F)c1` [Example 2-14-2, 2-[1-(4-ethoxy-2,6-difluorobenzyl)-1H-indazol-3-yl]-N-(3-methylpyridin-4-yl)-6,7-dihydro-5H-cyclopenta[d]pyrimidin-4-amine], the IC50 amounted to 8 nM in test [1] (setting [4]), 120 nM in test [2], 1.6 nM at Bub1 and 1100 nM with HeLa.

Consider `CCOc1cc(F)c(Cn2nc(-c3nc(CC)cc(Nc4ccnc(NC(C)=O)c4)n3)c3ccccc32)c(F)c1` [Example 2-12-22, N-[4-({2-[1-(4-ethoxy-2,6-difluorobenzyl)-1H-indazol-3-yl]-6-ethylpyrimidin-4-yl}amino)pyridin-2-yl]acetamide], for which the IC50 was 9.3 nM in test [1] (setting [3]), 750 nM in test [2], 35 nM at Bub1 and 1200 nM in the test with HeLa.

Consider `Cc1nccc(Nc2nc(-c3nn(Cc4c(F)cc(OCCO)cc4F)c4ccccc34)nc3c2CCC3)n1` [Example 2-6-18, 2-{3,5-difluoro-4-[(3-{4-[(2-methylpyrimidin-4-yl)amino]-6,7-dihydro-5H-cyclopenta[d]pyrimidin-2-yl}-1H-indazol-1-yl)methyl]phenoxy}ethanol], for which the IC50 was 30 nM in test [1] (setting [3]), 90 nM in test [2], 0.79 nM on Bub1 and over 10000 nM in the test on HeLa.

As for `CCOc1cc(F)c(Cn2nc(-c3nc(CN4CCOCC4)cc(Nc4ccnnc4)n3)c3ccccc32)c(F)c1` [Example 2-12-35, N-{2-[1-(4-ethoxy-2,6-difluorobenzyl)-1H-indazol-3-yl]-6-(morpholin-4-ylmethyl)pyrimidin-4-yl}pyridazin-4-amine], the IC50 in test [1] (setting [4]) worked out at 17 nM; in test [2], 590 nM; at Bub1, 14 nM; in the test on HeLa it was 10000 nM.

As to `Cc1cc(Nc2nc(-c3nn(Cc4c(F)cc(OCCO)cc4F)c4ccccc34)nc3c2CCC3)c(F)cn1` [Example 2-6-21, 2-{3,5-difluoro-4-[(3-{4-[(5-fluoro-2-methylpyridin-4-yl)amino]-6,7-dihydro-5H-cyclopenta[d]pyrimidin-2-yl}-1H-indazol-1-yl)methyl]phenoxy}ethanol], the IC50 in test [1] (setting [3]) turned out to be 11 nM; in test [2] it was 170 nM; at Bub1 it was 84 nM; in the test on HeLa, 3400 nM.

For `CCOc1cc(F)c(Cn2nc(-c3nc(CN4CCOCC4)cc(Nc4ccnc(NC(=O)C5CC5)c4)n3)c3ccccc32)c(F)c1` [Example 2-19-11, N-[4-({2-[1-(4-ethoxy-2,6-difluorobenzyl)-1H-indazol-3-yl]-6-(morpholin-4-ylmethyl)pyrimidin-4-yl}amino)pyridin-2-yl]cyclopropanecarboxamide], the IC50 in test [1] (setting [4]) is 9.1 nM; in test [2], 130 nM; at Bub1, 180 nM; in the test on HeLa, 1800 nM.

Take `CCOc1cc(F)c(Cn2nc(-c3nc(C)c(F)c(Nc4ccncc4)n3)c3ccccc32)c(F)c1` [Example 2-12-5, 2-[1-(4-ethoxy-2,6-difluorobenzyl)-1H-indazol-3-yl]-5-fluoro-6-methyl-N-(pyridin-4-yl)pyrimidin-4-amine]: the IC50 in test [1] (setting [4]) was determined as 6.5 nM; in test [2] it was 920 nM; on Bub1, 390 nM; in the test with HeLa, 1300 nM.

With `CC(=O)Nc1cc(Nc2nc(-c3nn(Cc4c(F)cc(OCCO)cc4F)c4ccccc34)ncc2C2CCN(CC(F)(F)F)CC2)ccn1` [Example 2-6-13, N-{4-[(2-{1-[2,6-difluoro-4-(2-hydroxyethoxy)benzyl]-1H-indazol-3-yl}-5-[1-(2,2,2-trifluoroethyl)piperidin-4-yl]pyrimidin-4-yl)amino]pyridin-2-yl}acetamide], the IC50 is 53 nM in test [1] (setting [3]), 390 nM in test [2], 8.4 nM on Bub1 and 9700 nM with HeLa.

For `CCOc1cc(F)c(Cn2nc(-c3nc4c(c(Nc5ccnc(C(F)(F)F)c5)n3)CNC4)c3ccccc32)c(F)c1` [Example 2-9-15, 2-[1-(4-ethoxy-2,6-difluorobenzyl)-1H-indazol-3-yl]-N-[2-(trifluoro-methyl)pyridin-4-yl]-6,7-dihydro-5H-pyrrolo[3,4-d]pyrimidin-4-amine, salt with hydrochloric acid], the IC50 is 3300 nM in test [1] (setting [3]), 340 nM in test [2], 2.8 nM at Bub1 and 4000 nM with HeLa.

In the case of `CCOc1cc(F)c(Cn2nc(-c3nc4c(c(Nc5cc(C)ncc5C)n3)CC(C)(C)CC4)c3ccccc32)c(F)c1` [Example 2-12-68, N-(2,5-dimethylpyridin-4-yl)-2-[1-(4-ethoxy-2,6-difluorobenzyl)-1H-indazol-3-yl]-6,6-dimethyl-5,6,7,8-tetrahydroquinazolin-4-amine], the IC50 in test [1] (setting [4]) was determined as 35 nM; in test [2], 78 nM; at Bub1, 3.8 nM; with HeLa, 2700 nM.

With `CCOc1cc(F)c(Cn2nc(-c3ncc(CCCN4CCC(F)(F)CC4)c(Nc4ccncc4)n3)c3ccccc32)c(F)c1` [Example 2-2-18, 5-[3-(4,4-difluoropiperidin-1-yl)propyl]-2-[1-(4-ethoxy-2,6-difluorobenzyl)-1H-indazol-3-yl]-N-(pyridin-4-yl)pyrimidin-4-amine], the IC50 in test [1] (setting [3]) was 130 nM; in test [2] it was 400 nM; on Bub1, 8700 nM; in the test with HeLa, over 10000 nM.

With `CCOc1cc(F)c(Cn2nc(-c3ncc(CCN)c(Nc4ccncc4)n3)c3ccccc32)c(F)c1` [Example 2-9-2, 5-(2-aminoethyl)-2-[1-(4-ethoxy-2,6-difluorobenzyl)-1H-indazol-3-yl]-N-(pyridin-4-yl)pyrimidin-4-amine], the IC50 was 8.8 nM in test [1] (setting [4]), 360 nM in test [2], 1600 nM at Bub1 and 1100 nM with HeLa.

Regarding `Cc1nccc(Nc2nc(-c3nn(Cc4c(F)cc(OCCO)cc4F)c4ccccc34)nc3c2CC(C)(C)C3)n1` [Example 2-6-22, 2-{4-[(3-{6,6-dimethyl-4-[(2-methylpyrimidin-4-yl)amino]-6,7-dihydro-5H-cyclopenta[d]pyrimidin-2-yl}-1H-indazol-1-yl)methyl]-3,5-difluorophenoxy} ethanol], the IC50 in test [1] (setting [3]) worked out at 81 nM; in test [2], 99 nM; at Bub1, 180 nM; with HeLa, 9200 nM.

As for `CCOc1cc(F)c(Cn2nc(-c3nc4c(c(Nc5ccnc(NC(C)=O)c5)n3)CC(C)(C)C4)c3ccccc32)c(F)c1` [Example 2-12-65, N-[4-({2-[1-(4-ethoxy-2,6-difluorobenzyl)-1H-indazol-3-yl]-6,6-dimethyl-6,7-dihydro-5H-cyclopenta[d]pyrimidin-4-yl}amino)pyridin-2-yl]acetamide], the IC50 is 22 nM in test [1] (setting [3]), 110 nM in test [2], 3.3 nM at Bub1 and over 10000 nM in the test with HeLa.

Values taken from patent US20170275270A1, “BENZYL SUBSTITUTED INDAZOLES” (Bayer Pharma Aktiengesellschaft, priority 2014, published 2017).
